From ChEMBL document CHEMBL6109119, “Chemoproteomic Profiling of C. albicans for Characterization of Antifungal Kinase Inhibitors” (J Med Chem, 2025) come the findings set out here.

Assay [1] addresses T1, Casein kinase I isoform epsilon (Homo sapiens, UniProt P49674). In kind it is cell-based, HEK293.
Target sequence in this assay (P49674 whole entry, canonical isoform): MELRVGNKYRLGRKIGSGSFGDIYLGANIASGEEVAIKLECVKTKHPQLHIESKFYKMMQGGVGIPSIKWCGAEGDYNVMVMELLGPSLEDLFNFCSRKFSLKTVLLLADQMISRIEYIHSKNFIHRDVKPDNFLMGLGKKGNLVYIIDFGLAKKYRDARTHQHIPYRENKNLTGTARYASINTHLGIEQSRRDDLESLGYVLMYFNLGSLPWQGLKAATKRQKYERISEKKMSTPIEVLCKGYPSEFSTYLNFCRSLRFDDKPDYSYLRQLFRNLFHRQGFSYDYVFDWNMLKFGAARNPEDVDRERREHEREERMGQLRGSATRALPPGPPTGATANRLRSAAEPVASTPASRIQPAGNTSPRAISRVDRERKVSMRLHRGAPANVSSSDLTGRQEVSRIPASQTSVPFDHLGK
Assay [2] addresses T2, Mitogen-activated protein kinase 14 (Homo sapiens, UniProt Q16539).
For assay [3], the target named is T3, Serine/threonine protein kinase YCK2 (Candida albicans (strain SC5314 / ATCC MYA-2876) (Yeast), UniProt A0A1D8PKB4).
T3 sequence (A0A1D8PKB4 whole entry): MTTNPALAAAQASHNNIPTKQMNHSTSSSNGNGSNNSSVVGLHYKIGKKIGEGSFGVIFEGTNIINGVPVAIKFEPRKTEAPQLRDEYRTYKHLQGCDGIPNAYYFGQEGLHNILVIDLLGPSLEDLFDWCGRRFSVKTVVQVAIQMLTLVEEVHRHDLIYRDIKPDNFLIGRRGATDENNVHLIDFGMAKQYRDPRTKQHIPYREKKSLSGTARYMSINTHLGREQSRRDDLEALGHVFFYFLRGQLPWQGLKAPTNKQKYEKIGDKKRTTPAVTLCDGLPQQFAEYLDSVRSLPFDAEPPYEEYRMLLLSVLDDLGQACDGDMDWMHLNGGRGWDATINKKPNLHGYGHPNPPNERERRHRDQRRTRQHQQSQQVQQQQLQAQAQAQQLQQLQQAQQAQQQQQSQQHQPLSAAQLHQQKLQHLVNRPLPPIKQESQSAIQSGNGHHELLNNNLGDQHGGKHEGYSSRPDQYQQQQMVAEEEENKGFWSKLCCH

Assay [4] deals with T4, Casein kinase I isoform delta (Homo sapiens, UniProt P48730). The format is cell-based, HEK293.
Target sequence in this assay (P48730 whole entry, canonical isoform): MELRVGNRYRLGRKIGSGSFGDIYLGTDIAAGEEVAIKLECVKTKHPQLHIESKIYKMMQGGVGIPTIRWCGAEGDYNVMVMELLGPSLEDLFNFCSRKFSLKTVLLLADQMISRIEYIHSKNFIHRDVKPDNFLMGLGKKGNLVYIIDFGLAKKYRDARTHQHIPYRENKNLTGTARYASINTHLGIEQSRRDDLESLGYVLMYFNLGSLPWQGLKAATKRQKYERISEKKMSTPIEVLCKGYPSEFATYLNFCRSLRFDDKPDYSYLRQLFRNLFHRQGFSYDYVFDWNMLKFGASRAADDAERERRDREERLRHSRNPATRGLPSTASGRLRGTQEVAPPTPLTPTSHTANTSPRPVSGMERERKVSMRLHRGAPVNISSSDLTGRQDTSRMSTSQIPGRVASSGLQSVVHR
For assay [5], the target named is T2, Mitogen-activated protein kinase 14. Nature of the assay: Inhibition of human P38alpha transfected in HEK293 cells using NanoBRET NanoGlo substrate incubated for 2 hrs in presence of K4 tracer by NanoBRET assay. The format is cell-based. For orientation: BRET reads energy transfer from a luciferase to a nearby fluorophore.
The target of assay [6] is T5, Serine/threonine protein kinase YCK2 (Candida albicans (strain SC5314 / ATCC MYA-2876) (Yeast)) (UniProt A0A1D8PKB4).
T5 sequence (whole entry): T3 sequence (A0A1D8PKB4 whole entry)
Nature of the assay: Binding affinity to Candida albicans Yck2 assessed as target engagement by MIB/MS competition assay.

Assay [7] concerns the target T3, Serine/threonine protein kinase YCK2. The format is cell-based, HEK293.
Assay [8] addresses T1, Casein kinase I isoform epsilon. The experiment in a line: Inhibition of human CK1epsilon transfected in HEK293 cells at 10 uM using NanoBRET NanoGlo substrate incubated for 2 hrs in presence of K8 tracer by NanoBRET assay relative to control. In kind it is cell-based.
Target sequence in this assay (P49674 whole entry, looked up, canonical isoform): as the sequence (P49674 whole entry, canonical isoform) above
The target in assay [9] is Casein kinase I isoform alpha (Homo sapiens, UniProt P48729).
Chain of Casein kinase I isoform alpha (P48729 whole entry, canonical isoform): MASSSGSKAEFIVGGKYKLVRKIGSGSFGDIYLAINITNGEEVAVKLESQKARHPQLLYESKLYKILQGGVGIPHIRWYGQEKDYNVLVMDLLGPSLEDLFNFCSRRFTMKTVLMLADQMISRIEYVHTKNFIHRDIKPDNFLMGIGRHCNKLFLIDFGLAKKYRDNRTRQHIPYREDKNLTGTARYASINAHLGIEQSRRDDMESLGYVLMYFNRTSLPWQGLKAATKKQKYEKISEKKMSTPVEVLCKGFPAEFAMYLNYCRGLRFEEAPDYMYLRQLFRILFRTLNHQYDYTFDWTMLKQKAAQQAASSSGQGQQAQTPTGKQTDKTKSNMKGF
Assay [10] deals with T4, Casein kinase I isoform delta. The experiment in a line: Binding affinity to human CK1 delta transfected in HEK293 cells at 0.1 to 10 uM by MIB/MS competition assay. In kind it is cell-based. Particulars: dose 0.1-10 µM.
Target sequence in this assay (P48730 whole entry, looked up, canonical isoform): as the sequence (P48730 whole entry, canonical isoform) above
In assay [11] the test system is HEK293. Particulars: Candida albicans, dose 10.0 µM.
Assay [12] has as its target T5, Serine/threonine protein kinase YCK2 (Candida albicans (strain SC5314 / ATCC MYA-2876) (Yeast)). As to conditions: HEK293, dose 10.0 µM.
Assay [13] addresses Mitogen-activated protein kinase 11 (Homo sapiens) (UniProt Q15759). Nature of the assay: Binding affinity to human P38beta transfected in HEK293 cells at 0.1 to 10 uM by MIB/MS competition assay. The format is cell-based. Particulars: dose 0.1-10 µM.
Assay [14] addresses Receptor-interacting serine/threonine-protein kinase 2 (Homo sapiens) (UniProt O43353). The experiment in a line: Binding affinity to human RIPK2 transfected in HEK293 cells at 0.1 to 10 uM by MIB/MS competition assay. As to conditions: dose 0.1-10 µM. The format is cell-based.
For assay [15], the system named is HEK293. Particulars: Candida albicans, dose 10.0 µM. This is another data set of the same source.
Assay [16] deals with T5, Serine/threonine protein kinase YCK2 (Candida albicans (strain SC5314 / ATCC MYA-2876) (Yeast)). Particulars: HEK293, dose 10.0 µM. This is another data set of the same source.
Assay [17] concerns the target Serine/threonine-protein kinase N3 (Homo sapiens) (UniProt Q6P5Z2). The experiment in a line: Binding affinity to human PKN3 transfected in HEK293 cells at 0.1 to 10 uM by MIB/MS competition assay. In kind it is cell-based. As to conditions: dose 0.1-10 µM.
Assay [18] concerns the target T1, Casein kinase I isoform epsilon. The experiment in a line: Binding affinity to human CK1epsilon transfected in HEK293 cells at 0.1 to 10 uM by MIB/MS competition assay. As to conditions: dose 0.1-10 µM. The format is cell-based.
Target sequence in this assay (P49674 whole entry, looked up, canonical isoform): as the sequence (P49674 whole entry, canonical isoform) above
Assay [19] concerns HEK293. As to conditions: Candida albicans, dose 10.0 µM. The source holds these as a separate data set.
Assay [20] has as its system Candida albicans. The experiment in a line: Antifungal activity against Candida albicans harboring mdr1mutant/mutant assessed as inhibition of fungal growth. In kind it is functional, organism-based.
In assay [21] the test system is Candida albicans. Nature of the assay: Antifungal activity against Candida albicans harboring cdr1mutant/mutant assessed as inhibition of fungal growth. In kind it is functional, organism-based.
Assay [22] relates to Candida albicans. The experiment in a line: Antifungal activity against Candida albicans harboring tetO-ERG6/erg6mutant assessed as inhibition of fungal growth in presence of doxycyclin. In kind it is functional, organism-based.
The test system of assay [23] is Candida albicans. Nature of the assay: Binding affinity to Candida albicans Hog1 assessed as target engagement at 0.1 to 10 uM by MIB/MS competition analysis. As to conditions: dose 0.1-10 µM.
Assay [24] concerns Candida albicans. The experiment in a line: Antifungal activity against Candida albicans harboring flu1mutant/mutant assessed as inhibition of fungal growth. In kind it is functional, organism-based.
For assay [25], the system named is Candida albicans. Nature of the assay: Antifungal activity against Candida albicans harboring cdr2mutant/mutant assessed as inhibition of fungal growth. The format is functional, organism-based.
Assay [26] relates to Candida albicans. The experiment in a line: Antifungal activity against wild type Candida albicans CaSS1 at 100 uM. The format is functional, organism-based.
Assay [27] deals with Candida albicans. The experiment in a line: Binding affinity to Candida albicans Hrr25 assessed as target engagement at 0.1 to 10 uM by MIB/MS competition assay. As to conditions: dose 0.1-10 µM.
The subject of assay [28] is Candida albicans. The experiment in a line: Antifungal activity against Candida albicans harboring tetO-YCK2/yck2 mutant assessed as inhibition of fungal growth at 100 uM in presence of doxycyclin. In kind it is functional, organism-based.
The test system of assay [29] is Candida albicans. The experiment in a line: Antifungal activity against Candida albicans harboring tetO-YCK2/yck2 mutant assessed as inhibition of fungal growth at 100 uM in absence of doxycyclin. The format is functional, organism-based.
The target of assay [30] is Casein kinase I isoform gamma-2 (Homo sapiens) (UniProt P78368). Nature of the assay: Binding affinity to human CK1gamma 2 transfected in HEK293 cells at 0.1 to 10 uM by MIB/MS competition assay. In kind it is cell-based. As to conditions: dose 0.1-10 µM.
Chain of Casein kinase I isoform gamma-2 (Homo sapiens) (P78368 whole entry, looked up, canonical isoform): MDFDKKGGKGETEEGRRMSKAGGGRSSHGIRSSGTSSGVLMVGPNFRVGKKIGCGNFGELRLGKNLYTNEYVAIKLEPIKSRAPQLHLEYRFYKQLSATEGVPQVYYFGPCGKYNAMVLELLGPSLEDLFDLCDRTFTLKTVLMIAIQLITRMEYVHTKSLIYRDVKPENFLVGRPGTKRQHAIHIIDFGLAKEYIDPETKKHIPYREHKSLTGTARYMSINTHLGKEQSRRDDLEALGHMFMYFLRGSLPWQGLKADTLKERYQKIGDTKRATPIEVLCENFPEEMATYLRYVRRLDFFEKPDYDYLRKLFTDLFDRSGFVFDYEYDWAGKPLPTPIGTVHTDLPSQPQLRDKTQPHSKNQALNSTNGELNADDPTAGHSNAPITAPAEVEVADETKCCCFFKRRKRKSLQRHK
Assay [31] concerns the target T6, Activin receptor type-1B (Homo sapiens) (UniProt P36896).
T6 sequence (whole entry): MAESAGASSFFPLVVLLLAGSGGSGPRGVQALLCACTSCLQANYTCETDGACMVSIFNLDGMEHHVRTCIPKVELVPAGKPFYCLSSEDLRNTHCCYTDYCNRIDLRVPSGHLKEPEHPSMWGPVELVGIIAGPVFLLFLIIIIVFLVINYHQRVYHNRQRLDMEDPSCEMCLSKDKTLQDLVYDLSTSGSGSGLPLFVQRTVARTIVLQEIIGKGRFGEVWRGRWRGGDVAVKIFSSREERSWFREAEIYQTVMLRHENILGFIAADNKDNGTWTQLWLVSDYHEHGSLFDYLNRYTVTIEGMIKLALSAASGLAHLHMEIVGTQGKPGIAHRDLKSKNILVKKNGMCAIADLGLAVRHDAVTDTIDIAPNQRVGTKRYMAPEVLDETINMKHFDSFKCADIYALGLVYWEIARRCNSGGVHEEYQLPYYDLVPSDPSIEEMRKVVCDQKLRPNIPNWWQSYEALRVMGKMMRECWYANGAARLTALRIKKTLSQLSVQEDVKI
Nature of the assay: Binding affinity to human ALK4 transfected in HEK293 cells at 0.1 to 10 uM by MIB/MS competition assay. Particulars: dose 0.1-10 µM. In kind it is cell-based.

Active and inactive are the calls of the source. The calls are words filed in the database; no cut-off is given here.

T2 sequence (Q16539 whole entry): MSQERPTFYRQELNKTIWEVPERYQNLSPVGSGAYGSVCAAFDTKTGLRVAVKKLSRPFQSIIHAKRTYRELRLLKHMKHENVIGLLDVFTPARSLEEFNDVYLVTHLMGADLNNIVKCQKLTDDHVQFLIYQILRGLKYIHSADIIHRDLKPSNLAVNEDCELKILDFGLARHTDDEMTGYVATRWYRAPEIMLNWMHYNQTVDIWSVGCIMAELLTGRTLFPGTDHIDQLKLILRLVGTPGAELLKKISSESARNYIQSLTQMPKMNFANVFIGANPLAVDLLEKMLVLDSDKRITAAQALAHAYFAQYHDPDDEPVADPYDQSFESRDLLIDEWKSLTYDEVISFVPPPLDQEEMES
Chain of Serine/threonine-protein kinase N3 (Homo sapiens) (Q6P5Z2 whole entry, looked up, canonical isoform): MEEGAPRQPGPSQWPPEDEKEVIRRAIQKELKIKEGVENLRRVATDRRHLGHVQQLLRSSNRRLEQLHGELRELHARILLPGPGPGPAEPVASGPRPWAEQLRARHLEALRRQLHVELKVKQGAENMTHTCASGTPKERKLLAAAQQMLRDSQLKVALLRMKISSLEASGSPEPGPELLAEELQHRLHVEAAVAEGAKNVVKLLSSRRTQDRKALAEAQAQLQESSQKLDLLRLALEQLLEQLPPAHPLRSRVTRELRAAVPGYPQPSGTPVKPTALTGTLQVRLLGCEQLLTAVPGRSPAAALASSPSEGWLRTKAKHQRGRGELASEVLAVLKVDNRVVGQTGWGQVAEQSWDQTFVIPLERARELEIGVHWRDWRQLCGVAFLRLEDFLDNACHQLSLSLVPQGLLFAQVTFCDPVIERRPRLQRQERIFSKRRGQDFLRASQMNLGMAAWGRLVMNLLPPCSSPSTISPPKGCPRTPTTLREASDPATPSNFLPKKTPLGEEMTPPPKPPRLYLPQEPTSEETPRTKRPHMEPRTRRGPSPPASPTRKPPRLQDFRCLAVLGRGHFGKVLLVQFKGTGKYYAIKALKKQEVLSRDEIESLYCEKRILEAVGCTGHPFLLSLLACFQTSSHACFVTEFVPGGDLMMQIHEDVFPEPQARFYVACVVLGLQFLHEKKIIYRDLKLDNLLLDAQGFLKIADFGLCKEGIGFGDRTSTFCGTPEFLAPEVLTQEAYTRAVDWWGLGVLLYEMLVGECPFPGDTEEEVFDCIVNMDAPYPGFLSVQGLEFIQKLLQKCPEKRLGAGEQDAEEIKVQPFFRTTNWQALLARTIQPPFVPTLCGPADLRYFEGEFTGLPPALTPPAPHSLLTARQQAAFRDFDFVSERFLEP
Chain of Receptor-interacting serine/threonine-protein kinase 2 (Homo sapiens) (O43353 whole entry): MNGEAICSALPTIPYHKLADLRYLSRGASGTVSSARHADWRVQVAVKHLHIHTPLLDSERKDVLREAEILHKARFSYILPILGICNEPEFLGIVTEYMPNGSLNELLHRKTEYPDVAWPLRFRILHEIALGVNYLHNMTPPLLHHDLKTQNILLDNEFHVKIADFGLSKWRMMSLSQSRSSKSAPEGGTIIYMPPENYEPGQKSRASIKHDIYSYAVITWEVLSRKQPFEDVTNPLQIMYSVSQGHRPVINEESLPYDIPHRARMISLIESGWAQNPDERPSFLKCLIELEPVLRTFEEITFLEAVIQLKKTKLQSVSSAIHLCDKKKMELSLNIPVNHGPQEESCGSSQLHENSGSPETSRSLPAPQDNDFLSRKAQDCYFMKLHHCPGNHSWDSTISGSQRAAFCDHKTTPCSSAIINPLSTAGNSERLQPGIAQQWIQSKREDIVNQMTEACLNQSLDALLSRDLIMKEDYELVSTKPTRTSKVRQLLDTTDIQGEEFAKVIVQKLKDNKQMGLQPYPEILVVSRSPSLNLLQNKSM
Chain of Mitogen-activated protein kinase 11 (Homo sapiens) (Q15759 whole entry): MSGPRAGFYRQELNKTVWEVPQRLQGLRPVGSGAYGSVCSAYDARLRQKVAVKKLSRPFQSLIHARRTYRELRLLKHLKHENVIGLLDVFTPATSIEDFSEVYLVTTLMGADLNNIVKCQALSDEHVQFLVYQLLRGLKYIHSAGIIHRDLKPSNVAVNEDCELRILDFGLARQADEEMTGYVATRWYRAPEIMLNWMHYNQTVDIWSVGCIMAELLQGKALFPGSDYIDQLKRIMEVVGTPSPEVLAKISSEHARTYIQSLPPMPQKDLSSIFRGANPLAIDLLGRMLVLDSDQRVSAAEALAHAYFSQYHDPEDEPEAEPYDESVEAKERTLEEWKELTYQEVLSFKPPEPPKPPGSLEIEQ

What is called IC50 is the concentration that gives 50% inhibition. Regarding `CC(C)(C)n1nc(Cc2cccc3ccccc23)c2c(N)ncnc21`, the IC50 in assay [1] was 14 nM; in assay [2] it was 750 nM; in assay [3] it was > 8000 nM; in [4], > 10000 nM; in [5] it was 1600 nM.

Regarding `Cc1n[nH]c2ccc(-c3cc(OC[C@@H](N)Cc4ccccc4)cnc3-c3ccoc3)cc12`, in assay [6], the Activity result was “Dose-dependent-effect”. Moreover, the values for the half-maximal inhibitory concentration (IC50) in assay [7], in assay [1] and in [4] were 100 nM, 200 nM and 100 nM, respectively.

By inhibition is commonly meant the percentage by which the read-out fell short of the control. Take `C[C@@H](N)c1ccc(C(=O)Nc2ccnc3[nH]ccc23)cc1` [Y-39983]: the IC50 in [7] was > 10000 nM; in assay [1], > 10000 nM; in assay [2], > 20000 nM; in assay [3], > 8000 nM; in assay [4] it was > 10000 nM. Moreover, the inhibition in assay [8] was found to be 25%.

In the case of `Cc1occc1-c1nc(N)c(OC[C@@H](N)Cc2c[nH]c3ccccc23)cc1-c1cc2c(C)n[nH]c2cn1`, the IC50 in assay [7] was determined as 3700 nM; in [1] it was 620 nM; in assay [3] it was 180 nM; in assay [4], 1400 nM.

Take `CNC(=O)c1nn(C)c2c1C(C)(C)Cc1cnc(Nc3ccc(N4CCN(C)CC4)cc3)nc1-2` [MILCICLIB]: the IC50 in assay [7] was 1100 nM; in assay [2], > 20000 nM; in assay [3] it was 770 nM; in assay [4], 200 nM; in assay [9] it was 250 nM.

Regarding `Cc1nc(N)sc1-c1ccnc(Nc2ccc(N3CCOCC3)cc2)n1` [CYC-116], the IC50 was > 10000 nM in assay [7], ~10000 nM in assay [1] and > 20000 nM in [2]. Further, the inhibition in [8] was > 50%.

For the molecule `CN1CCC(F)(Cn2cnc(-c3ccc(F)cn3)c2-c2ccnc3[nH]ccc23)CC1`, the IC50 was > 10000 nM in [7], 82 nM in assay [1], 640 nM in assay [3] and 14 nM in [9].

Regarding `CC(C)(C)c1cnc(CSc2cnc(NC(=O)C3CCNCC3)s2)o1` [BMS-387032], the IC50 in assay [7] is > 10000 nM; in assay [3], > 8000 nM. Besides, in [8], the inhibition stood at 25%.

Consider `Cc1ccc2c(-c3ccncc3)c(-c3ccc(F)cc3)nn2c1`, for which the IC50 in assay [1] turned out to be 780 nM; in assay [4] it was 230 nM; in [5], 44 nM.

As to `CC(C)[C@H](CO)Nc1nc(Nc2cc(N)cc(Cl)c2)c2ncn(C(C)C)c2n1` [AMINOPURVALANOL], the IC50 is > 10000 nM in [7]; > 10000 nM in assay [1]; > 20000 nM in assay [2]; > 8000 nM in [3]; > 10000 nM in assay [4]; > 20000 nM in assay [9]. Also, in [8], the inhibition turned out to be 25%.

As to `CC(=O)c1cnc2ccc(-c3cc(Cl)c(O)c(Cl)c3)nc2c1N[C@H]1CC[C@H](CN(C)C)CC1`, the IC50 was 660 nM in [7], 40 nM in assay [2] and > 10000 nM in [5].

`N#Cc1ccn2c(-c3ccncc3)c(-c3ccc(F)cc3)nc2c1`: the result in [10], in assay [13], in assay [14], in [17] and in [18] was Active. Besides, the log2FC was -1.4 in [11]; -3.5 in [12]; -1 in [15]; -2.2 in assay [16]; -2.2 in assay [19]. For the same molecule, in assay [1], the concentration for half-maximal inhibition (IC50) is > 10000 nM. Further, the inhibition in assay [8] was determined as 25%.

As to `c1ccc(-c2n[nH]cc2-c2ccnc3ccccc23)nc1`, the result in assay [20], in [21], in assay [23], in assay [24] and in [25] was inactive. For the same molecule, the result in assay [22], in assay [27], in assay [28] and in assay [29] was Active. Moreover, the IC50 in [2] is 2600 nM; in [4], 2800 nM; in assay [5] it was 760 nM. Also, the Activity entry in assay [26] was “Active; Weakly Active”. The inhibition in assay [8] was < 25%.

Consider `Nc1nc(Nc2ccc(S(N)(=O)=O)cc2)n(C(=S)Nc2c(F)cccc2F)n1`, for which the IC50 was > 10000 nM in assay [7]; > 10000 nM in [1]; > 20000 nM in assay [2]; 470 nM in assay [3]; > 20000 nM in assay [9]. The inhibition in [8] was 25%.

Regarding `N#Cc1ccc2c(-c3ccncc3)c(-c3ccc(F)cc3)nn2c1`, the outcome in [10], in assay [30], in [31], in assay [14], in [17] and in assay [18] was Active. Besides, the values for the IC50 in assay [1] and in assay [5] were > 10000 nM and 80 nM, respectively. Also, the inhibition in assay [8] was 25%.

Consider `CC(C)n1nc(-c2cc3cc(O)ccc3[nH]2)c2c(N)ncnc21`, for which the inhibition in [8] is > 50%.
